Key:
[1] = biological target: Acylglycerol kinase, mitochondrial (Homo sapiens) (UniProt Q53H12); experiment: Selectivity interaction (Kinase panel (KiNativ target engagement assay in Jurkat cells)) EUB0001635a AGK; format: cell-based; conditions: Selectivity number of off-targets 0.0, Selectivity number of targets 233.0, Source Knowledge https://www.sciencedirect.com/science/article/pii/S2451945619300674?via%3Dihub, at 1 µM
[2] = biological target: Ribosomal protein S6 kinase alpha-5 (Homo sapiens) (UniProt O75582); experiment: Selectivity interaction (KinomeScan (DiscoverX)) EUB0000877a RPS6KA5; conditions: at 10 µM
[3] = biological target: Dual specificity mitogen-activated protein kinase kinase 2 (Homo sapiens) (UniProt P36507); experiment: Selectivity interaction (KinomeScan (DiscoverX)) EUB0001550a MAP2K2; conditions: at 1 µM
[4] = system: Tyrosine-protein kinase ABL1 (Homo sapiens), P00519 [T315I]; experiment: Selectivity interaction (KinomeScan (DiscoverX)) EUB0000045b ABL1; conditions: at 10 µM
[5] = biological target: Ephrin type-A receptor 5 (Homo sapiens) (UniProt P54756); conditions: at 10 µM
[6] = biological target: T1, Histone-lysine N-methyltransferase NSD3 (Homo sapiens) (UniProt Q9BZ95); experiment: Selectivity interaction (Methyltransferase screen (radiometric assays, panel of 8 PRMTs, 21 protein lysine methyltransferases, 3 DNA methyltransferases, and one RNA methyltransferase)) EUB0000271b NSD3
T1 sequence (whole entry): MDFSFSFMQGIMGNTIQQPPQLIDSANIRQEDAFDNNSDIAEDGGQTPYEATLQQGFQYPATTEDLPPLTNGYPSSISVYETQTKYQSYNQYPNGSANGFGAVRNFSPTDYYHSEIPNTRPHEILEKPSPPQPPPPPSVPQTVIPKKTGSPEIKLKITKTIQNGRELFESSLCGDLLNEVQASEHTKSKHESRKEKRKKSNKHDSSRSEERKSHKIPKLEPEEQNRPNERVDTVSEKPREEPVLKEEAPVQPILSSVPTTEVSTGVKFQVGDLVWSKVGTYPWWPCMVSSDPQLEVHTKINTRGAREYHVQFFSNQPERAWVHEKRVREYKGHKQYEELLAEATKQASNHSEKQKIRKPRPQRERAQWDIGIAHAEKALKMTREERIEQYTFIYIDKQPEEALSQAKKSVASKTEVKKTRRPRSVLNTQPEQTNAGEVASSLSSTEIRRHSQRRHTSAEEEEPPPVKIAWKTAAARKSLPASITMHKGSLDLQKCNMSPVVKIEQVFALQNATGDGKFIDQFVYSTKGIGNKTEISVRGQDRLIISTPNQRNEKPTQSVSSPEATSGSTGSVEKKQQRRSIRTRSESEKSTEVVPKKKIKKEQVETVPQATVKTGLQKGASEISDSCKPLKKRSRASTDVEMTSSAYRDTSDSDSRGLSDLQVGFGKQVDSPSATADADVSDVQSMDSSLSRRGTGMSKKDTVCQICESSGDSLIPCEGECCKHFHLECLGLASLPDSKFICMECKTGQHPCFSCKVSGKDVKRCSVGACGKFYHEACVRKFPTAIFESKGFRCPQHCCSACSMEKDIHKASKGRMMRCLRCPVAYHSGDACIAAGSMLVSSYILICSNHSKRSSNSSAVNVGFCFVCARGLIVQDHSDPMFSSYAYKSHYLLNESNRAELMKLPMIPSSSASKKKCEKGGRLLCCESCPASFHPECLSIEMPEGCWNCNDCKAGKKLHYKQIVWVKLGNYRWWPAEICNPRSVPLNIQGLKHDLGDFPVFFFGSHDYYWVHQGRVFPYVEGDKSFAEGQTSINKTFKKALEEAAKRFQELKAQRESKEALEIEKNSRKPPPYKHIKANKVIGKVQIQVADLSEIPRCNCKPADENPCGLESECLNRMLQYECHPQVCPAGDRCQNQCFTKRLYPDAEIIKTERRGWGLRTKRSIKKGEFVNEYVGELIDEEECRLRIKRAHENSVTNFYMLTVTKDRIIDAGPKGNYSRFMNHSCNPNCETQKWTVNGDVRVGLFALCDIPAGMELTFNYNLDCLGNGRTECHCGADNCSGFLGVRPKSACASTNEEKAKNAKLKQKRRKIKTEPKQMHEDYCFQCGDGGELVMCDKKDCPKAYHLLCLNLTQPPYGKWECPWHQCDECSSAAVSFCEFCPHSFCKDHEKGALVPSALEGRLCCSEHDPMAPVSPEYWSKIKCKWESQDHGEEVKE

[7] = biological target: T2, Testis-specific serine/threonine-protein kinase 2 (Homo sapiens) (UniProt Q96PF2); experiment: Selectivity interaction (ProQinase) EUB0000171b TSSK2
T2 sequence (whole entry): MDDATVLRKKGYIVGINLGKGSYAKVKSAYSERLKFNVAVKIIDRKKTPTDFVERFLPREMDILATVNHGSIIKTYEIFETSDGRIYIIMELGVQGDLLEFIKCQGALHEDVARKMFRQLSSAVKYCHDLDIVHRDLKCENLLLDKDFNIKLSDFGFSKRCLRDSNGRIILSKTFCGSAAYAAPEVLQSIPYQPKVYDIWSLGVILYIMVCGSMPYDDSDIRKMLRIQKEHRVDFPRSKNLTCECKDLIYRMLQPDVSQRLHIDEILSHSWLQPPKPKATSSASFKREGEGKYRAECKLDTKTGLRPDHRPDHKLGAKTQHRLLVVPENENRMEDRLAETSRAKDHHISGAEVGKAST

Sequence of Dual specificity mitogen-activated protein kinase kinase 2 (Homo sapiens) (P36507 whole entry): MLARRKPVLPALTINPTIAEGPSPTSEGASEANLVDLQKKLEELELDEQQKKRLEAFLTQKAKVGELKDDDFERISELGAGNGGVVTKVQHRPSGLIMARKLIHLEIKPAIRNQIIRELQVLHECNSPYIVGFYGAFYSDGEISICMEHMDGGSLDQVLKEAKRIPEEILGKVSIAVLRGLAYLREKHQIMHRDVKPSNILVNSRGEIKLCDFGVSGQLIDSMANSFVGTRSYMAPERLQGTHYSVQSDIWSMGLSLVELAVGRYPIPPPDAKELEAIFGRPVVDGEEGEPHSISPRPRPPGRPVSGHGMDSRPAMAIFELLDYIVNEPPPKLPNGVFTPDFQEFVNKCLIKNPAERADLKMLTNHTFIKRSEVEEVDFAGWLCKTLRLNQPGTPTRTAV
Sequence of Ephrin type-A receptor 5 (Homo sapiens) (P54756 whole entry): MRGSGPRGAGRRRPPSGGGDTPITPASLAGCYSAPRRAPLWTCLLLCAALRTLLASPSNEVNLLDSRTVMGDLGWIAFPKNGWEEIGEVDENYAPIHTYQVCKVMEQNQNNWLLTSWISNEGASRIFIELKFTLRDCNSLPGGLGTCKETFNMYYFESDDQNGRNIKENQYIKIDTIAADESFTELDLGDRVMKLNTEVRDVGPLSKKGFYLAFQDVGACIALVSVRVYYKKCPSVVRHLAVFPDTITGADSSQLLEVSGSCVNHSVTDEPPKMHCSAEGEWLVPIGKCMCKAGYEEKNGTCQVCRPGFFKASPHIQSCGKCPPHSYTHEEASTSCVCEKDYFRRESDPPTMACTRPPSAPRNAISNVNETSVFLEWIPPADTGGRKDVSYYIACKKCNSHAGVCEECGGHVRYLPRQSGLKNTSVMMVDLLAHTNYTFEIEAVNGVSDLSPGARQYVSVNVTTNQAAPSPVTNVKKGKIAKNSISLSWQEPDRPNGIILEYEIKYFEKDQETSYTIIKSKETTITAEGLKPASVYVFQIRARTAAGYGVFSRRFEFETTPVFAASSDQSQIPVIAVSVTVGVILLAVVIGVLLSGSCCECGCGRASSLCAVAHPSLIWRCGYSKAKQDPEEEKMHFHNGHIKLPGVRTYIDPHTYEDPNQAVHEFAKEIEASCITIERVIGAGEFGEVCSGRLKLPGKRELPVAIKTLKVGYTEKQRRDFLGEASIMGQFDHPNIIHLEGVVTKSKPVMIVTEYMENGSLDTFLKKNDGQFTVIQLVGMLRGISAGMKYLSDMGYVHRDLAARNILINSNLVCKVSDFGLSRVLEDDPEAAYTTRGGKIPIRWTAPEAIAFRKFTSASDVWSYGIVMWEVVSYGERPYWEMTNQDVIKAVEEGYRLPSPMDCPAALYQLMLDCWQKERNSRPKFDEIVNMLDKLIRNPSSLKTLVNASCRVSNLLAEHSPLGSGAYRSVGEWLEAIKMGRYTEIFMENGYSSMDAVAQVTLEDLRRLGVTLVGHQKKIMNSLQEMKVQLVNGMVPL
Sequence of Acylglycerol kinase, mitochondrial (Homo sapiens) (Q53H12 whole entry): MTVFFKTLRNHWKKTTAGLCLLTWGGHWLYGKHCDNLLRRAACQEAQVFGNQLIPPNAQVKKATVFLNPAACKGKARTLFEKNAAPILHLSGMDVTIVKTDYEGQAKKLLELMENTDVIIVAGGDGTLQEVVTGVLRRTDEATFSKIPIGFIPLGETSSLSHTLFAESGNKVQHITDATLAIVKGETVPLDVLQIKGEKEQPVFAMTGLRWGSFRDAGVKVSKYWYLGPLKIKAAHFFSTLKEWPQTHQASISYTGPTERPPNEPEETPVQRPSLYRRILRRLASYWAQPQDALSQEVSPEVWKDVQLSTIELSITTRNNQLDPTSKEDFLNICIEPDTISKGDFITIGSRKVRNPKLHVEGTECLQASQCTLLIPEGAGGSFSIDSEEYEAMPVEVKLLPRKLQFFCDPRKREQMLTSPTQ
Sequence of Ribosomal protein S6 kinase alpha-5 (Homo sapiens) (O75582 whole entry, looked up): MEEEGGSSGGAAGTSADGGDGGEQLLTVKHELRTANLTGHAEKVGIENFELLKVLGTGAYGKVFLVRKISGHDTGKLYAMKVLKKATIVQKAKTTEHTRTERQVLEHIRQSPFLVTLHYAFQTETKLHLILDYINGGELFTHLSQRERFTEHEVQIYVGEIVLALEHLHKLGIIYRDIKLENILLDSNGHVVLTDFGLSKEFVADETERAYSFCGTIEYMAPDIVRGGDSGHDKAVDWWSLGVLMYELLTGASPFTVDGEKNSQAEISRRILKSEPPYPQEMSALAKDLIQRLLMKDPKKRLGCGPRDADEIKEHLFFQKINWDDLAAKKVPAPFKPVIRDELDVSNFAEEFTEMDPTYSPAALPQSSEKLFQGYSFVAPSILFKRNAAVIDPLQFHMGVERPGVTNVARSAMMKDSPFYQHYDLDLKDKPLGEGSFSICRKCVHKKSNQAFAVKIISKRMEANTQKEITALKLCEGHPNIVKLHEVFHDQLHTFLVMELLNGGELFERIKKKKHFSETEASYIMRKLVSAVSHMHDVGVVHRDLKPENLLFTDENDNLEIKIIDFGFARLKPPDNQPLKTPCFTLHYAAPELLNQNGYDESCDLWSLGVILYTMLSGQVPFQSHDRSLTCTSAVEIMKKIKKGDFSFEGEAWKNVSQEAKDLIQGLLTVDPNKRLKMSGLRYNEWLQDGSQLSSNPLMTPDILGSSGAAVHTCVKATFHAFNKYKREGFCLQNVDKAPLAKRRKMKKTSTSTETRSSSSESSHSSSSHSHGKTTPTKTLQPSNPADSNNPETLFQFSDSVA

`C=CC(=O)Nc1ccc(C(=O)Nc2[nH]nc3c2CN(C(=O)N[C@H](CN(C)C)c2ccccc2)C3(C)C)cc1` showed a % of engagement [1] of -3.9%.
`CCC(=O)N1CC[C@H](Nc2ncnc3c2CN(c2cnc(OC)c(C(F)(F)F)c2)CC3)C1` [LENIOLISIB] gave a % of inhibition [2] of 76%.
In the case of `CN(C)CC#Cc1ccc2[nH]c3c(c2c1)-c1nc(N)ncc1CCC3`, the % of control [3] is reported as 9.6%.
Compound `C=CC(=O)Nc1cc(-n2c(=O)ccc3cnc4ccc(-c5ccc(NS(C)(=O)=O)cc5)cc4c32)ccc1C` has a % of control [4] of 100%.
`Cc1cc([C@@H](C)Nc2ccccc2C(=O)O)c2nc(N3CCOCC3)cc(=O)n2c1` [AZD-6482] gave a % of control [5] of 99%.
Compound `Cc1cc(C)cc([C@@H]2c3cc(C)ccc3NC(=O)CN2C(=O)c2ccc(Br)s2)c1` has a % of activity ([6]; at 1 µM) of 99.3% and a % of activity ([6]; at 10 µM) of 104%.
Work on `C=CC(=O)Nc1cccc(C(=O)Nc2ccc(Nc3cc(-c4[nH]c(SC)nc4C)ccn3)cc2)c1` yielded a % of control ([7]; at 1 µM) of 90% and a % of control ([7]; at 5 µM) of 97%.

Reference: ChEMBL document CHEMBL5465560, “Selectivity Literature for EUbOPEN Chemogenomic Library” (2024)
